Laboratory results taken from publication PMC7300217, “Surfactin Like Broad Spectrum Antimicrobial Lipopeptide Co-produced With Sublancin From Bacillus subtilis Strain A52: Dual Reservoir of Bioactives” (Frontiers in Microbiology, 2020).

Columns and labels:
S. mutans MTCC 497 = assay: MIC, microtiter plate dilution assay; format: cell-based; conditions: 5 × 10^5 CFU/ml, 37°C, OD600 after 24 h, triplicate
Procedure: (§1) The antimicrobial activity was tested by well diffusion assay as mentioned earlier ([Singh et al., 2014]). Strain A52 was grown for 24 h in 500 ml of nutrient broth (NB, Hi-media, India) using 1000 ml flask and subsequently cells were removed by centrifugation (10,000 rpm for 15 min at 4°C). Supernatant was filtered through 0.22 μm filter (Millipore, United States) to obtain cell-free fermented broth (CFB) that was used for antimicrobial assay (50 μl) against various indicator strains and the activity was measured as diameter of inhibition zone. Test strains used were Staphylococcus aureus (MTCC 1430), Bacillus subtilis (MTCC 121), B. firmus (MTCC 488), B. licheniformis (MTCC 429), B. thuringiensis (MTCC 1953), Escherichia coli (MTCC 1610), Micrococcus luteus (MTCC 106), Steptococcus pyrogens (MTCC 1928), S. anginosus (MTCC 1929), S. oralis (MTCC 2696), S. mutans (MTCC 497), Candida albicans (MTCC 1637), C. albicans (MTCC 183), C. albicans (MTCC 227), C. tropicalis (MTCC 184), C. glabrata (MTCC 3019), C. haemulonii (MTCC 2766), and C. inconsplicue (MTCC 1074). The phytopathogenic fungi employed in this study were Alternaria brassicicola (MTCC 2102), Colletotrichum acutatum (MTCC 1037), and Fusarium moniliforme (MTCC 158). Clinical isolates of Candida were provided by National Culture Collection of Pathogenic Fungi (NCCPF), PGIMER, Chandigarh, India.
(§2) The minimum inhibitory concentration (MIC) of HPLC purified peptides was evaluated by using microtiter plate dilution assay. The peptide concentration was estimated using BCA protein assay (Thermo Fisher Scientific, United States) method as described by manufacturer. Actively growing test strains (5 × 10^5 CFU/ml) were inoculated in a 96-well plate with different concentrations of the peptides and plates were incubated for 24–48 h at 37°C (final volume in each well is 200 μl). OD was measured at 600 nm after 24 and 48 h for bacteria and yeast, respectively, using ELISA microplate reader (Thermo, United States). MIC against phytopathogenic fungi was determined using 96-well microtiter plate assay ([Kaur et al., 2016]). In 96-well microplates, 100 μl of fungal spore suspension (1 × 10^5 spores/ml) prepared in potato dextrose broth (PDB, Hi-media, India) was mixed with100 μl of fresh PDB containing different concentrations of lipopeptide. Control well contained 100 μl of fungal spore suspension and 100 μl of only medium. The microplates were incubated at 25°C and readings were recorded at 600 nm after 48 h. The lowest concentration showing no growth was considered as MIC. Each test was done in triplicate and optical density (OD600) of peptide treated wells were compared with uninoculated wells (blank medium control).

S. pyogenes MTCC 1928 = assay: MIC, microtiter plate dilution assay; format: cell-based; conditions: 5 × 10^5 CFU/ml, 37°C, OD600 after 24 h, triplicate
Procedure: as §1, §2

[1] = test system: C. rugos 470141 (clinical isolate); assay: MIC, microtiter plate dilution assay; format: cell-based; conditions: 5 × 10^5 CFU/ml, 37°C, OD600 after 48 h, triplicate
Procedure: as §1, §2

[2] = test system: C. tropicalis 420024 (clinical isolate); assay: MIC, microtiter plate dilution assay; format: cell-based; conditions: 5 × 10^5 CFU/ml, 37°C, OD600 after 48 h, triplicate
Procedure: as §1, §2

C. glabrata MTCC 3019 = assay: MIC, microtiter plate dilution assay; format: cell-based; conditions: 5 × 10^5 CFU/ml, 37°C, OD600 after 48 h, triplicate
Procedure: as §1, §2

C. haemulonii MTCC 2766 = assay: MIC, microtiter plate dilution assay; format: cell-based; conditions: 5 × 10^5 CFU/ml, 37°C, OD600 after 48 h, triplicate
Procedure: as §1, §2

[3] = test system: C. inconsplicue MTCC 1074; assay: MIC, microtiter plate dilution assay; format: cell-based; conditions: 5 × 10^5 CFU/ml, 37°C, OD600 after 48 h, triplicate
Procedure: as §1, §2

[4] = test system: C. kefyr 410004 (clinical isolate); assay: MIC, microtiter plate dilution assay; format: cell-based; conditions: 5 × 10^5 CFU/ml, 37°C, OD600 after 48 h, triplicate
Procedure: as §1, §2

[5] = test system: C. haemulonii 470125 (clinical isolate); assay: MIC, microtiter plate dilution assay; format: cell-based; conditions: 5 × 10^5 CFU/ml, 37°C, OD600 after 48 h, triplicate
Procedure: as §1, §2

C. albicans MTCC 183 [6] = assay: Scanning electron microscopy of treated cells; format: cell-based, Candida albicans; conditions: 2X and 5X MIC, 37°C overnight
Procedure: (§3) The effect of peptide on cell membrane was determined by scanning electron microscopy (SEM) and transmission electron microscopy (TEM) after treatment with AMPs. For this, test strains S. aureus MTCC 1430 and C. albicans MTCC 183 were cultured to mid-log phase in respective media. The cells were harvested by centrifugation at 10,000 × g for 10 min, washed thrice with 1X PBS, and re-suspended to adjust an OD600 of 0.2. […] Following the incubation, cells were processed for SEM and TEM as described ([Raje et al., 2006]). The specimens were completely dried using freeze drier, coated with gold, and visualized under a scanning electron microscope (ZEISS, Germany). For TEM (JEOL, JEM 2100, United States), cells were treated with peptide, washed, and subjected to negative stain 0.1% sodium phosphotungstate (Sigma, United States) for visualization. Effect of A52 lipopeptide on fungal spore was observed through a phase contrast microscope (Nickon H600L, Japan).

M. luteus MTCC 106 = assay: MIC, microtiter plate dilution assay; format: cell-based, Micrococcus luteus; conditions: 5 × 10^5 CFU/ml, 37°C, OD600 after 24 h, triplicate
Procedure: (§4) The antimicrobial activity was tested by well diffusion assay as mentioned earlier ([Singh et al., 2014]). Strain A52 was grown for 24 h in 500 ml of nutrient broth (NB, Hi-media, India) using 1000 ml flask and subsequently cells were removed by centrifugation (10,000 rpm for 15 min at 4°C). Supernatant was filtered through 0.22 μm filter (Millipore, United States) to obtain cell-free fermented broth (CFB) that was used for antimicrobial assay (50 μl) against various indicator strains and the activity was measured as diameter of inhibition zone. […]
(§5) The minimum inhibitory concentration (MIC) of HPLC purified peptides was evaluated by using microtiter plate dilution assay. […] OD was measured at 600 nm after 24 and 48 h for bacteria and yeast, respectively, using ELISA microplate reader (Thermo, United States). MIC against phytopathogenic fungi was determined using 96-well microtiter plate assay ([Kaur et al., 2016]). […] The microplates were incubated at 25°C and readings were recorded at 600 nm after 48 h. […]

[7] = test system: A. brassicicola MTCC 2102 spores; assay: Effect on fungal spores, phase contrast microscopy; format: cell-based, Alternaria brassicicola
Procedure: as §3

B. subtilis MTCC 121 = assay: MIC, microtiter plate dilution assay; format: cell-based, Bacillus subtilis; conditions: 5 × 10^5 CFU/ml, 37°C, OD600 after 24 h, triplicate
Procedure: as §4, §5

S. aureus MTCC 1430 = assay: Transmission electron microscopy of treated cells; format: cell-based, Staphylococcus aureus; conditions: 2X and 5X MIC, 37°C overnight
Procedure: as §3

C. albicans MTCC 183 [8] = assay: MIC, microtiter plate dilution assay; format: cell-based, Candida albicans; conditions: 5 × 10^5 CFU/ml, 37°C, OD600 after 48 h, triplicate
Procedure: as §1, §2

C. albicans MTCC 227 = assay: MIC, microtiter plate dilution assay; format: cell-based, Candida albicans; conditions: 5 × 10^5 CFU/ml, 37°C, OD600 after 48 h, triplicate
Procedure: as §1, §2

[9] = test system: C. albicans 400054 (clinical isolate); assay: MIC, microtiter plate dilution assay; format: cell-based, Candida albicans; conditions: 5 × 10^5 CFU/ml, 37°C, OD600 after 48 h, triplicate
Procedure: as §1, §2

C. albicans MTCC 1637 = assay: MIC, microtiter plate dilution assay; format: cell-based, Candida albicans; conditions: 5 × 10^5 CFU/ml, 37°C, OD600 after 48 h, triplicate
Procedure: as §1, §2

rabbit blood cells = assay: Hemolysis assay; format: cell-based, New Zealand white rabbit
Procedure: For hemolysis assay blood was collected from New Zealand white rabbit, centrifuged, washed three times, and resuspended in phosphate-buffered saline (PBS). Cells were counted using hemocytometer (adjusted to 2 × 10^8 cells/ml) and treated with different concentrations of peptides (between 10 and 200 μg/ml). They were incubated in a CO2 incubator for 24 h at 37°C and processed to observe release of hemoglobin as described earlier ([Singh et al., 2014]). PBS and 0.1% Triton X-100 were used as agents for 0 and 100% hemolysis, respectively.

Q: With “Glu^1-Leu/Ile^2-Leu^3-Val^4-Asp^5-Leu^6-Leu/Ile^7 and a β-OH hexadecane fatty acid chain (lariat or depsi) [Lipopeptide A52, cyclic surfactin-like lipopeptide, 7 amino acids and C16 β-hydroxy fatty acid, 1061.9 Da, from B. subtilis strain A52]” as the substance, how does the “MIC value, S. mutans MTCC 497” value (S. mutans MTCC 497) read?
A: 6 µg/mL

Q: And the “MIC value, S. pyogenes MTCC 1928” value (S. pyogenes MTCC 1928)?
A: 2 µg/mL

Q: What about the “MIC value, C. rugos 470141” value [1] of the same substance?
A: 16 µg/mL

Q: And the “MIC value, C. tropicalis 420024” value [2]?
A: 28 µg/mL

Q: And the “MIC value, C. glabrata MTCC 3019” value (C. glabrata MTCC 3019)?
A: 16 µg/mL

Q: What about the “MIC value, C. haemulonii MTCC 2766” value (C. haemulonii MTCC 2766) of the same substance?
A: 20 µg/mL

Q: And the “MIC value, C. inconsplicue MTCC 1074” value [3]?
A: 16 µg/mL

Q: And the “MIC value, C. kefyr 410004” value [4]?
A: 26 µg/mL

Q: What about the “MIC value, C. haemulonii 470125” value [5] of the same substance?
A: 28 µg/mL

Q: What about the “cell morphology in SEM images” value (C. albicans MTCC 183 [6]) of the same substance?
A: disintegrated outer cell membrane

Q: What about the “MIC value, M. luteus MTCC 106” value (M. luteus MTCC 106) of the same substance?
A: 1 µg/mL

Q: What about the “lysis of fungal spores” value [7] of the same substance?
A: able to lyse the spores

Q: What about the “MIC value, B. subtilis MTCC 121” value (B. subtilis MTCC 121) of the same substance?
A: 2 µg/mL

Q: What about the “cell morphology in TEM images” value (S. aureus MTCC 1430) of the same substance?
A: wall rupturing and cellular lysis

Q: What about the “MIC value, C. albicans MTCC 183” value (C. albicans MTCC 183 [8]) of the same substance?
A: 12 µg/mL

Q: And the “MIC value, C. albicans MTCC 227” value (C. albicans MTCC 227)?
A: 24 µg/mL

Q: What about the “MIC value, C. albicans 400054” value [9] of the same substance?
A: 16 µg/mL

Q: What about the “MIC value, C. albicans MTCC 1637” value (C. albicans MTCC 1637) of the same substance?
A: 28 µg/mL

Q: And the hemolytic activity (rabbit blood cells)?
A: demonstrated hemolytic activity
